Measurements as given in patent US20180335421A1, “METHOD FOR SCREENING INHIBITORS TARGETING ANTI-APOPTOTIC SURVIVAL PATHWAYS” (Memorial Sloan-Kettering Cancer Center, priority 2015, published 2018).

Key:
MCL-1 = MCL-1 (Homo sapiens, UniProt Q07820); details: background statement; cited from earlier work
[1] = test system: BCL-XL-addicted H23 cells; assay: Treatment of engineered H23 cell lines with BCL-2, BCL-XL and MCL-1 inhibitors to confirm selective addiction; details: BCL-XL-addicted H23 cells (BCL-XL overexpression, MCL-1 knockdown); FIG. 3B
BCL-2-addicted H23 cells = assay: as above; format: cell-based, human; details: BCL-2-addicted H23 cells (BCL-2 overexpression, MCL-1 knockdown); FIG. 3B
A549 cells = assay: ABT-737-induced apoptosis after knockdown of MCL-1; format: cell-based, human; details: A549 cells with knockdown of MCL-1
parental H23 cells = assay: Treatment of parental (MCL-1-addicted) H23 cells with BCL-2, BCL-XL and MCL-1 inhibitors; format: cell-based, human; details: parental H23 cells (MCL-1-addicted); FIG. 3B
wild-type cells = assay: Sensitivity of wild-type cells to BH3-only proteins; format: cell-based, mouse; details: wild-type cells lacking pre-assembled cell death priming complexes; FIG. 2B
Text: (§1) Importantly, this system mimics the “primed” cell death state of many cancers with abundant pre-assembled complexes of BCL-XL/BIM, BCL-XL/PUMA, BCL-2/BIM, BCL-2/PUMA, MCL-1/BIM or MCL-1/PUMA. […] In addition, compounds that downregulate MCL-1 mRNA and/or protein or induce endogenous NOXA, BIM, or PUMA will trigger similar death patterns.

[2] = test system: MCL-1-IRES-BIM or MCL-1-IRES-PUMA MEFs; assay: Apoptosis induction by BH3-only proteins in engineered MEFs; format: cell-based, mouse; details: MCL-1-addicted MEFs; FIGS. 2A and 2B
Text: (§2) Cellular dependency on BCL-2, BCL-XL or MCL-1 for survival is governed by the relative abundance among these proteins (FIG. 1). Intricate interplays among the BCL-2 subfamilies govern cellular survival/death, and also provide a molecular blueprint concerning the clinical application of BH3-mimetics in killing cancer cells. Using MEFs that express different combinations of anti-apoptotic BCL-2 members and activator BH3s, a system has been built that can distinguish between the inhibition of BCL-2/BCL-XL and MCL-1 by BAD/BAD mimetics and […]/NOXA mimetics, respectively (FIGS. 2A and 2B).
as §1

[3] = test system: BCL-XL-IRES-BIM, BCL-XL-IRES-PUMA, BCL-2-IRES-BIM or BCL-2-IRES-PUMA MEFs; assay: as above; format: cell-based, mouse; details: BCL-XL- or BCL-2-addicted MEFs; FIGS. 2A and 2B
Text: as §2, §1

MCL-1, sequence (Q07820 whole entry): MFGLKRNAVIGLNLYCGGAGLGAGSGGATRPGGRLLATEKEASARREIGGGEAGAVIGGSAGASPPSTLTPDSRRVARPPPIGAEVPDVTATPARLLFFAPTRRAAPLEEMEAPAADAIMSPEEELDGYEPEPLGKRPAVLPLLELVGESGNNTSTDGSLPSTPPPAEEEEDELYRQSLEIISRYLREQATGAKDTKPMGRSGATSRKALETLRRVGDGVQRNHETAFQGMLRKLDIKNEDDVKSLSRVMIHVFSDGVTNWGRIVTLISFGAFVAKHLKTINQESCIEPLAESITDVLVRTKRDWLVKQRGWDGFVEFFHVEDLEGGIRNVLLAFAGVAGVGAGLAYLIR

CC1(C)CCC(c2ccc(Cl)cc2)=C(CN2CCN(c3ccc(C(=O)NS(=O)(=O)c4ccc(N[C@H](CCN5CCOCC5)CSc5ccccc5)c(S(=O)(=O)C(F)(F)F)c4)cc3)CC2)C1 [ABT-263]
inhibition of MCL-1 (MCL-1): fail to inhibit

CN(C)CC[C@H](CSc1ccccc1)Nc1ccc(S(=O)(=O)NC(=O)c2ccc(N3CCN(Cc4ccccc4-c4ccc(Cl)cc4)CC3)cc2)cc1[N+](=O)[O-] [ABT-737, (R)-4-(4-((4′-chloro-[1,1′-biphenyl]-2-yl)methyl)piperazin-1-yl)-N-((4-((-4-(dimethylamino)-1-(phenylthio)butan-2-yl)amino)-3-nitrophenyl)sulfonyl)benzamide]
sensitivity of cells to inhibitor [1]: sensitive | sensitivity of cells to inhibitor (BCL-2-addicted H23 cells): sensitive | susceptibility to ABT-737-induced apoptosis (A549 cells): susceptible | sensitivity of cells to inhibitor (parental H23 cells): only sensitive to inhibitors of MCL-1

NOXA: pro-apoptotic BH3-only member of the BCL-2 protein family that specifically inactivates MCL-1 (MPGKKARKNAQPSPARAPAELEVECATQLRRFGDKLNFRQKLLNLISKLFCSGT; UniProt Q13794 1-54, looked up)
sensitivity of wild-type cells (wild-type cells): less sensitive | induction of apoptosis [2]: selectively induces apoptosis

B1: BAD: pro-apoptotic BH3-only BCL-2 family protein that binds to BCL-XL and BCL-2 but not MCL-1 (protein, UniProt Q92934 1-168, looked up)
Bcl2-associated agonist of …: MFQIPEFEPSEQEDSSSAERGLGPSPAGDGPSGSGKHHRQAPGLLWDASHQQEQPTSSSHHGGAGAVEIRSRHSSYPAGTEDDEGMGEEPSPFRGRSRSAPPNLWAAQRYGRELRRMSDEFVDSFKKGLPRPKSAGTATQMRQSSSWTRVFQSWWDRNLGRGSSAPSQ
sensitivity of wild-type cells (wild-type cells): less sensitive | induction of apoptosis [3]: induces apoptosis
